System: 931267-113-T-J1-PDC multicell spheroid viability
Assay: Anticancer human tumor 931267-113-T-J1-PDC patient-derived colon adenocarcinoma cell line growth inhibition [PI3K]
Conditions: for IC50: curve of first compound; for viability, T/C: stronger effect = lower value; active means viability on the fitted dose curve at most 10% of control; inactive means the rest
Procedure, shortened: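 Three cell types, namely tumor cells, endothelial cells and mesenchymal stem cells, formed each spheroid. Combinations with four PI3K inhibitors were screened at clinically achievable concentrations decreasing by half-log, and spheroid viability was recorded.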

[1] = second compound 0.0316 µM, first compound 0.0316 µM
[2] = second compound 0.0316 µM, first compound 0.1 µM
[3] = second compound 0.1 µM, first compound 0.0316 µM
[4] = second compound 0.1 µM, first compound 0.1 µM
[5] = second compound 0.316 µM, first compound 0.0316 µM
[6] = second compound 0.316 µM, first compound 0.1 µM
[7] = second compound 1 µM, first compound 0.0316 µM
[8] = second compound 1 µM, first compound 0.1 µM
[9] = second compound 3.16 µM, first compound 0.0316 µM
[10] = second compound 3.16 µM, first compound 0.1 µM
[11] = second compound 10 µM, first compound 0.0316 µM
[12] = second compound 10 µM, first compound 0.1 µM
[13] = second compound 0.0316 µM, first compound 0.316 µM
[14] = second compound 0.0316 µM, first compound 1 µM
[15] = second compound 0.0316 µM, first compound 3.16 µM
[16] = second compound 0.0316 µM, first compound 10 µM
[17] = second compound 0.1 µM, first compound 0.316 µM
[18] = second compound 0.1 µM, first compound 1 µM
[19] = second compound 0.1 µM, first compound 3.16 µM
[20] = second compound 0.1 µM, first compound 10 µM
[21] = second compound 0.316 µM, first compound 0.316 µM
[22] = second compound 0.316 µM, first compound 1 µM
[23] = second compound 0.316 µM, first compound 3.16 µM
[24] = second compound 0.316 µM, first compound 10 µM
[25] = second compound 1 µM, first compound 0.316 µM
[26] = second compound 1 µM, first compound 1 µM
[27] = second compound 1 µM, first compound 3.16 µM
[28] = second compound 1 µM, first compound 10 µM
[29] = second compound 3.16 µM, first compound 0.316 µM
[30] = second compound 3.16 µM, first compound 1 µM
[31] = second compound 3.16 µM, first compound 3.16 µM
[32] = second compound 3.16 µM, first compound 10 µM
[33] = second compound 10 µM, first compound 0.316 µM
[34] = second compound 10 µM, first compound 1 µM
[35] = second compound 10 µM, first compound 3.16 µM
[36] = second compound 10 µM, first compound 10 µM
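Further: viability read 7 days after compound addition.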

CC(C)n1nc(-c2ccc3oc(N)nc3c2)c2c(N)ncnc21 + Cc1nc(NC(=O)N2CCCC2C(N)=O)sc1-c1ccnc(C(C)(C)C(F)(F)F)c1
0.0777 µM: IC50 (second compound 0.1 µM)
0.0915 µM: IC50 (second compound 0.0316 µM)
0.0569 µM: IC50 (second compound 1 µM)
0.00831 µM: IC50 (second compound 10 µM)
0.0249 µM: IC50 (second compound 3.16 µM)
0.0697 µM: IC50 (second compound 0.316 µM)
inactive: viability, T/C (second compound 0.0316 µM, first compound 0.000316 µM) 97.2% | viability, T/C (second compound 0.0316 µM, first compound 0.001 µM) 84.3% | viability, T/C (second compound 0.0316 µM, first compound 0.00316 µM) 81.5% | viability, T/C (second compound 0.0316 µM, first compound 0.01 µM) 101% | viability, T/C [1] 78.3% | viability, T/C [2] 47.6% | viability, T/C (second compound 0.1 µM, first compound 0.000316 µM) 97.3% | viability, T/C (second compound 0.1 µM, first compound 0.001 µM) 91.1% | viability, T/C (second compound 0.1 µM, first compound 0.00316 µM) 89.9% | viability, T/C (second compound 0.1 µM, first compound 0.01 µM) 92.6% | viability, T/C [3] 79.7% | viability, T/C [4] 41.5% | viability, T/C (second compound 0.316 µM, first compound 0.000316 µM) 88.8% | viability, T/C (second compound 0.316 µM, first compound 0.001 µM) 91.9% | viability, T/C (second compound 0.316 µM, first compound 0.00316 µM) 86.8% | viability, T/C (second compound 0.316 µM, first compound 0.01 µM) 85.5% | viability, T/C [5] 68.4% | viability, T/C [6] 41.5% | viability, T/C (second compound 1 µM, first compound 0.000316 µM) 78.9% | viability, T/C (second compound 1 µM, first compound 0.001 µM) 72.3% | viability, T/C (second compound 1 µM, first compound 0.00316 µM) 72.7% | viability, T/C (second compound 1 µM, first compound 0.01 µM) 66.8% | viability, T/C [7] 64.1% | viability, T/C [8] 38.3% | viability, T/C (second compound 3.16 µM, first compound 0.000316 µM) 68.8% | viability, T/C (second compound 3.16 µM, first compound 0.001 µM) 67.8% | viability, T/C (second compound 3.16 µM, first compound 0.00316 µM) 62.1% | viability, T/C (second compound 3.16 µM, first compound 0.01 µM) 58.4% | viability, T/C [9] 48.4% | viability, T/C [10] 30.7% | viability, T/C (second compound 10 µM, first compound 0.000316 µM) 62.3% | viability, T/C (second compound 10 µM, first compound 0.001 µM) 52.3% | viability, T/C (second compound 10 µM, first compound 0.00316 µM) 55.6% | viability, T/C (second compound 10 µM, first compound 0.01 µM) 45.7% | viability, T/C [11] 44% | viability, T/C [12] 24.1%

CC1(C)CCC(CN2CCN(c3ccc(C(=O)NS(=O)(=O)c4ccc(NCC5CCOCC5)c([N+](=O)[O-])c4)c(Oc4cnc5[nH]ccc5c4)c3)CC2)=C(c2ccc(Cl)cc2)C1 + Cc1nc(NC(=O)N2CCCC2C(N)=O)sc1-c1ccnc(C(C)(C)C(F)(F)F)c1
4.44 µM: IC50 (second compound 3.16 µM)
5.31 µM: IC50 (second compound 0.316 µM)
4.73 µM: IC50 (second compound 1 µM)
5.9 µM: IC50 (second compound 0.1 µM)
6.06 µM: IC50 (second compound 0.0316 µM)
inactive: viability, T/C [1] 105% | viability, T/C [2] 98.3% | viability, T/C [13] 98% | viability, T/C [14] 108% | viability, T/C [15] 90.3% | viability, T/C [16] 19% | viability, T/C [3] 95.4% | viability, T/C [4] 94% | viability, T/C [17] 92% | viability, T/C [18] 102% | viability, T/C [19] 92.6% | viability, T/C [20] 14% | viability, T/C [5] 91.7% | viability, T/C [6] 101% | viability, T/C [21] 98.5% | viability, T/C [22] 84.7% | viability, T/C [23] 80.2% | viability, T/C [24] 15.7% | viability, T/C [7] 91.7% | viability, T/C [8] 78.4% | viability, T/C [25] 79.4% | viability, T/C [26] 88.1% | viability, T/C [27] 72.5% | viability, T/C [9] 73.2% | viability, T/C [10] 72.8% | viability, T/C [29] 72.5% | viability, T/C [30] 70.6% | viability, T/C [31] 67.6% | viability, T/C [11] 57.1% | viability, T/C [12] 57.9% | viability, T/C [33] 50.3% | viability, T/C [34] 58.1% | viability, T/C [35] 53.7%
3.48 µM: IC50 (second compound 10 µM)
active: viability, T/C [28] 8.3% | viability, T/C [32] 8.18% | viability, T/C [36] 7.58%

CCCS(=O)(=O)Nc1ccc(F)c(C(=O)c2c[nH]c3ncc(-c4ccc(Cl)cc4)cc23)c1F + Cc1nc(NC(=O)N2CCCC2C(N)=O)sc1-c1ccnc(C(C)(C)C(F)(F)F)c1
6.09 µM: IC50 (second compound 0.1 µM)
2.39 µM: IC50 (second compound 10 µM)
inactive: viability, T/C [1] 104% | viability, T/C [2] 98% | viability, T/C [13] 121% | viability, T/C [14] 131% | viability, T/C [15] 113% | viability, T/C [3] 99.5% | viability, T/C [4] 105% | viability, T/C [17] 105% | viability, T/C [18] 118% | viability, T/C [19] 120% | viability, T/C [5] 100% | viability, T/C [6] 91% | viability, T/C [21] 95.7% | viability, T/C [22] 108% | viability, T/C [23] 91.2% | viability, T/C [7] 87.8% | viability, T/C [8] 80.5% | viability, T/C [25] 91.5% | viability, T/C [26] 96.6% | viability, T/C [27] 89.6% | viability, T/C [9] 69% | viability, T/C [10] 82.1% | viability, T/C [29] 77.7% | viability, T/C [30] 72.5% | viability, T/C [31] 70.7% | viability, T/C [11] 61.2% | viability, T/C [12] 60.9% | viability, T/C [33] 65.3% | viability, T/C [34] 63.7% | viability, T/C [35] 46%
active: viability, T/C [16] 6.2% | viability, T/C [20] 5.03% | viability, T/C [24] 4.47% | viability, T/C [28] 4.19% | viability, T/C [32] 4.52% | viability, T/C [36] 3.36%
5.38 µM: IC50 (second compound 1 µM)
4.53 µM: IC50 (second compound 3.16 µM)
5.47 µM: IC50 (second compound 0.316 µM)
6.23 µM: IC50 (second compound 0.0316 µM)

CNC(=O)c1ccc(N2C(=S)N(c3ccc(C#N)c(C(F)(F)F)c3)C(=O)C2(C)C)cc1F + Cc1nc(NC(=O)N2CCCC2C(N)=O)sc1-c1ccnc(C(C)(C)C(F)(F)F)c1
> 10 µM: IC50 (second compound 0.0316 µM) | IC50 (second compound 0.1 µM) | IC50 (second compound 0.316 µM) | IC50 (second compound 1 µM) | IC50 (second compound 3.16 µM)
inactive: viability, T/C [1] 112% | viability, T/C [2] 85% | viability, T/C [13] 95.4% | viability, T/C [14] 105% | viability, T/C [15] 101% | viability, T/C [16] 93.5% | viability, T/C [3] 94% | viability, T/C [4] 105% | viability, T/C [17] 98.7% | viability, T/C [18] 105% | viability, T/C [19] 99.5% | viability, T/C [20] 98.5% | viability, T/C [5] 92.9% | viability, T/C [6] 75.9% | viability, T/C [21] 87.9% | viability, T/C [22] 80.5% | viability, T/C [23] 89.3% | viability, T/C [24] 76.5% | viability, T/C [7] 89.6% | viability, T/C [8] 66.4% | viability, T/C [25] 73.9% | viability, T/C [26] 85.1% | viability, T/C [27] 83.5% | viability, T/C [28] 76.2% | viability, T/C [9] 71.2% | viability, T/C [10] 64.5% | viability, T/C [29] 73.8% | viability, T/C [30] 62.5% | viability, T/C [31] 77.2% | viability, T/C [32] 67.5% | viability, T/C [11] 59.7% | viability, T/C [12] 54.2% | viability, T/C [33] 56.2% | viability, T/C [34] 53.3% | viability, T/C [35] 56.4% | viability, T/C [36] 42.2%
3.66 µM: IC50 (second compound 10 µM)

C[C@@H](NC(=O)c1ncnc(N)c1Cl)c1ncc(C(=O)Nc2cc(C(F)(F)F)c(Cl)cn2)s1 + Cc1nc(NC(=O)N2CCCC2C(N)=O)sc1-c1ccnc(C(C)(C)C(F)(F)F)c1
> 10 µM: IC50 (second compound 0.0316 µM) | IC50 (second compound 0.1 µM) | IC50 (second compound 0.316 µM)
1.39 µM: IC50 (second compound 10 µM)
inactive: viability, T/C [1] 110% | viability, T/C [2] 106% | viability, T/C [13] 110% | viability, T/C [14] 116% | viability, T/C [15] 97.5% | viability, T/C [16] 82.8% | viability, T/C [3] 103% | viability, T/C [4] 107% | viability, T/C [17] 113% | viability, T/C [18] 111% | viability, T/C [19] 88.7% | viability, T/C [20] 72.5% | viability, T/C [5] 106% | viability, T/C [6] 96.4% | viability, T/C [21] 106% | viability, T/C [22] 95.7% | viability, T/C [23] 74.6% | viability, T/C [24] 57.5% | viability, T/C [7] 93.7% | viability, T/C [8] 93.2% | viability, T/C [25] 99.2% | viability, T/C [26] 81.1% | viability, T/C [27] 71.2% | viability, T/C [28] 49.5% | viability, T/C [9] 83.6% | viability, T/C [10] 91.8% | viability, T/C [29] 83.3% | viability, T/C [30] 79.8% | viability, T/C [31] 62.6% | viability, T/C [32] 35% | viability, T/C [11] 72.2% | viability, T/C [12] 63.3% | viability, T/C [33] 63.8% | viability, T/C [34] 52% | viability, T/C [35] 41.9% | viability, T/C [36] 16.9%
5.35 µM: IC50 (second compound 3.16 µM)
9.87 µM: IC50 (second compound 1 µM)
